Experimental data from BindingDB's records for doi:10.3109/14756366.2013.765417 (Msa University, 2014).

Columns and labels:
[1] = target: Epidermal growth factor receptor (Homo sapiens, UniProt P00533); test: In Vitro Tyrosine Kinase Enzyme Assay
Procedure: (§1) Protein kinase assays were performed at ambient temperature for 20-40 min (depending on the target) in a final volume of 25 μl according to the following assay reaction recipe: […] of diluted active protein kinase target (~10-50 nM final protein concentration in the assay), 2.5 μl of peptide substrate, 3. μl of kinase assay buffer, 5 μl of compound or 10% DMSO, and 5 μl of 33P-ATP (250 μM stock solution, 0.8 mCi). The assay was initiated by the addition of 33P-ATP and the reaction mixture was incubated at ambient temperature for 20-40 min, depending on the protein kinase target. After the incubation period, the assay was terminated by spotting 10 μl of the reaction mixture onto Multiscreen phosphocellulose P81 plate. The Multiscreen phosphocellulose P81 plate was washed three times for approximately 15 min each in a 1% phosphoric acid solution. The radioactivity on the P81 plate (EMD Millipore Corporation, Billerica, MA) was counted in the presence of scintillation fluid in a Trilux scintillation counter (GMI Inc., Ramsey, MN).

[2] = target: Receptor tyrosine-protein kinase erbB-2 (Homo sapiens, UniProt P04626); test: In Vitro Tyrosine Kinase Enzyme Assay
Procedure: as §1

Chain of Epidermal growth factor receptor (P00533 whole entry): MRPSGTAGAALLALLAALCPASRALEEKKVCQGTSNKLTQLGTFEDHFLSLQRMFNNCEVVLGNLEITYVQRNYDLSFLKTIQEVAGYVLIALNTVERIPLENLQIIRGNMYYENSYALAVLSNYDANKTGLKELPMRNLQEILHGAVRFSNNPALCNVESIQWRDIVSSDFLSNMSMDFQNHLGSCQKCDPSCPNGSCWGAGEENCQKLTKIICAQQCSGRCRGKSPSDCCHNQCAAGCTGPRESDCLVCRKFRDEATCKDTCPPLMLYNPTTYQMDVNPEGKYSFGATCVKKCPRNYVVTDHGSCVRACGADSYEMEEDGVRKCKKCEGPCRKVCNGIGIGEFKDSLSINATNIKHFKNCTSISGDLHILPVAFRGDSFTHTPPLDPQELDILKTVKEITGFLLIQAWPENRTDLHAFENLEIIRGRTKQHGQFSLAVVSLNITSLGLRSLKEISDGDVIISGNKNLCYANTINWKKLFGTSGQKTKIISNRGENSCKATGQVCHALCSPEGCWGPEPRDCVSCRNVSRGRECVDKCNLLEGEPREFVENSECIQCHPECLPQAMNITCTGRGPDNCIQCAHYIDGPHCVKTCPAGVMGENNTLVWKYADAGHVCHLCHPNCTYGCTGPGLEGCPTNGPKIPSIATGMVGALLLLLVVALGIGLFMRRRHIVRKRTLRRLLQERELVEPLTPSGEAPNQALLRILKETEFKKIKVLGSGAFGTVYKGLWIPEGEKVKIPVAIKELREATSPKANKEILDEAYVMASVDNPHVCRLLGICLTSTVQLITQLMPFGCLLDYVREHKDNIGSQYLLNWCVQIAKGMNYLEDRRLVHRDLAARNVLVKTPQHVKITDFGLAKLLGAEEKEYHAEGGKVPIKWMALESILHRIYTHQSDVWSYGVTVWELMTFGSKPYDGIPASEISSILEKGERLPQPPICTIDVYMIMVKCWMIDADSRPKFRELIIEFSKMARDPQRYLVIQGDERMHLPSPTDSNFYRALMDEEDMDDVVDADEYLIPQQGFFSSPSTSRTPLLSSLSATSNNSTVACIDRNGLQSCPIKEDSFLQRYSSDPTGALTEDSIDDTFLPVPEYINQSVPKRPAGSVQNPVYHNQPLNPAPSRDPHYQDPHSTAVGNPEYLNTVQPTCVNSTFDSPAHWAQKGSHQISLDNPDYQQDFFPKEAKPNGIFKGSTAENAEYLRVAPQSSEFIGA
Chain of Receptor tyrosine-protein kinase erbB-2 (P04626 whole entry): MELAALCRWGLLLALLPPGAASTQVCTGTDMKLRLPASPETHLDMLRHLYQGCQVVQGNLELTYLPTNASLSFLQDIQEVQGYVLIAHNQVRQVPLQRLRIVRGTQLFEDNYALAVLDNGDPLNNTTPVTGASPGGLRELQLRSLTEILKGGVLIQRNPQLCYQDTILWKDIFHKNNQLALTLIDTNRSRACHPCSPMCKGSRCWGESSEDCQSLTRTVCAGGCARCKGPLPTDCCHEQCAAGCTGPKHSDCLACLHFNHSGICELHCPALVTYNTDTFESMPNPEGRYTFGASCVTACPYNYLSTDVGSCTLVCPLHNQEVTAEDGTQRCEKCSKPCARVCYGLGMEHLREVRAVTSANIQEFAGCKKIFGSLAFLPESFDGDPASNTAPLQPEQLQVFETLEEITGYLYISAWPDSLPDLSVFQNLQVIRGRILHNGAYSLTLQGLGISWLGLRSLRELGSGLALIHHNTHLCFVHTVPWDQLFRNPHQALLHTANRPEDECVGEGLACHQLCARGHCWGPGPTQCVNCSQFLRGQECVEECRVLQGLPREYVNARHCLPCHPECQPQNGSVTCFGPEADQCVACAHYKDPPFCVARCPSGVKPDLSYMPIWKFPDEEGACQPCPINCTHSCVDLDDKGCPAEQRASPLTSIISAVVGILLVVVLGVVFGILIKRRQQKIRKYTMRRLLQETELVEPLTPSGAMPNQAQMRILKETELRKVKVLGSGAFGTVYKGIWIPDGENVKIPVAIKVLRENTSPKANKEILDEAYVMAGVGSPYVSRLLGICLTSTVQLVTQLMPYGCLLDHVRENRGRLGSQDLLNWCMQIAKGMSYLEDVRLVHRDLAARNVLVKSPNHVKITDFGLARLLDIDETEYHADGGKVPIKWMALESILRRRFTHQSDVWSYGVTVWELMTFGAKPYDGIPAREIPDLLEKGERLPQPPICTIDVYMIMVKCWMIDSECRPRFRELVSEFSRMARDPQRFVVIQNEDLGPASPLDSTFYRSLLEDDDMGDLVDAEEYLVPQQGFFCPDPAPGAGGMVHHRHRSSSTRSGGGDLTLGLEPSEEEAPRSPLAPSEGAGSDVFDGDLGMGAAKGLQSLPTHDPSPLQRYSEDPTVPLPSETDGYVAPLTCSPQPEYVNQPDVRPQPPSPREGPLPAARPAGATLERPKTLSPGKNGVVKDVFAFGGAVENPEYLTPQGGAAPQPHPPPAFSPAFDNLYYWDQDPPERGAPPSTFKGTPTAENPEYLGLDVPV

| IC50 [1] | IC50 [2] | Compound |
| --- | --- | --- |
| 2.09 µM | 3.98 µM | N#Cc1c(-c2ccc(F)cc2)cc(-c2ccc(Nc3ncnc4ccccc34)cc2)[nH]c1=N [HER2/EGFR dual kinase inhibitor, 5d] |
| 1.93 µM | 1.04 µM | COc1cc2ncnc(Nc3ccc(-c4cc(-c5ccc(Br)cc5)c(C#N)c(=N)[nH]4)cc3)c2cc1OC [HER2/EGFR dual kinase inhibitor, 5e] |
| 2.58 µM | 98.8 µM | COc1cc2ncnc(Nc3ccc(C(=O)/C=C/c4ccc(Cl)cc4)cc3)c2cc1OC [(E)-3-(4-Chlorophenyl)-1-{4-[(6,7-dimethoxyquinazolin-4-yl)amino]phenyl}prop-2-en-1-one] |
